Results: ChEMBL document CHEMBL2346651, “Structure-activity relationship study of tachykinin peptides for the development of novel neurokinin-3 receptor selective agonists” (Bioorg Med Chem, 2013)
pEC50, pIC50: −log10 of the molar value. Residues, ends and D or L forms follow the SMILES beside them.

Legend:
Neuromedin-K receptor [1] = biological target: T1, Neuromedin-K receptor (Homo sapiens, UniProt P29371); assay: Displacement of ([125I]-His3, MePhe7)-NKB from NK3R (unknown origin) transfected in CHO cells by gamma counting analysis; format: cell-based
T1 sequence (P29371 whole entry): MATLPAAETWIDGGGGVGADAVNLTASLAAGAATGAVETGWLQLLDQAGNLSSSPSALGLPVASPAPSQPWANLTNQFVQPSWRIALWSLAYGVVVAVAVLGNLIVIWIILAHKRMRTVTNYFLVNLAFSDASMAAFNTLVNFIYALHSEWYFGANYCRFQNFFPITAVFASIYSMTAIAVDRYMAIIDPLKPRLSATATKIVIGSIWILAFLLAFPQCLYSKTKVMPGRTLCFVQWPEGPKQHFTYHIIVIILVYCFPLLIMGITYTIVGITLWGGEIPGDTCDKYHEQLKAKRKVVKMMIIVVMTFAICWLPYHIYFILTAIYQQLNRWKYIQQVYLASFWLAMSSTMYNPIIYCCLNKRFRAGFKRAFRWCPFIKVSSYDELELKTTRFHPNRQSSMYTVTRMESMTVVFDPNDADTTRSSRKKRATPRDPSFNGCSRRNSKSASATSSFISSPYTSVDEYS

[2] = biological target: T2, Substance-K receptor (Homo sapiens) (UniProt P21452); assay: Displacement of [125I]-NKA from NK2R (unknown origin) transfected in CHO cells at 10 uM by gamma counting analysis; format: cell-based
T2 sequence (whole entry): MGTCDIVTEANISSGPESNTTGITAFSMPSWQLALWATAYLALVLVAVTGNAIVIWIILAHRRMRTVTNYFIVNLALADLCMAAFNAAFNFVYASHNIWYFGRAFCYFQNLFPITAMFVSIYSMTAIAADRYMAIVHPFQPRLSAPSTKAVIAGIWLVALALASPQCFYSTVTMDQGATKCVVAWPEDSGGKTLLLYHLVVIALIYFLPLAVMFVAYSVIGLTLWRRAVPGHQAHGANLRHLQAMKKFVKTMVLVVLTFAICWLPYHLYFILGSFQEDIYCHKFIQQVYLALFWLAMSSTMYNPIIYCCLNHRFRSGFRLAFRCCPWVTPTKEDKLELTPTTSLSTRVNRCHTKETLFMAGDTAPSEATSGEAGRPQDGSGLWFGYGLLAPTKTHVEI

Neuromedin-K receptor [3] = biological target: T1, Neuromedin-K receptor; assay: Agonist activity at NK3R (unknown origin) transfected in CHO cells assessed as calcium influx […]; format: functional, cell-based
[4] = biological target: Substance-P receptor (Homo sapiens) (UniProt P25103); assay: Displacement of [125I]-BH-SP from NK1R (unknown origin) transfected in CHO cells at 10 uM by gamma counting analysis; format: cell-based
Sequence of Substance-P receptor (Homo sapiens) (P25103 whole entry): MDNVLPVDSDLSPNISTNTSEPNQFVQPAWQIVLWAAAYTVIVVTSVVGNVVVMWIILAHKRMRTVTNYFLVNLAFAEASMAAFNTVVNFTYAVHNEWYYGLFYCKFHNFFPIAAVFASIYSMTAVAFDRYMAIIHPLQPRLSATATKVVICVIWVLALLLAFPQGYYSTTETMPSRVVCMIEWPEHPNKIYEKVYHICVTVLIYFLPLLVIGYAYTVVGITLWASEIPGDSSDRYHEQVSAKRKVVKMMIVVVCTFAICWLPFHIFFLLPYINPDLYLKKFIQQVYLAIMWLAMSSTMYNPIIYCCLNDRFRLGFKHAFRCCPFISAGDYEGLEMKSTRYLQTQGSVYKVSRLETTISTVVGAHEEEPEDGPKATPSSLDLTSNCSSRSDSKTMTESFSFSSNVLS

Compound | pIC50 (Neuromedin-K receptor [1]) | inhibition [2] | pEC50 (Neuromedin-K receptor [3]) | inhibition [4]
CSCC[C@H](NC(=O)[C@H](CC(C)C)NC(=O)CNC(=O)[C@H](Cc1ccccc1)N(C)C(=O)[C@H](Cc1ccccc1)NC(=O)[C@H](CC(=O)O)NC(=O)[C@H](CC(=O)O)NC(=O)[C@H](Cc1cnc[nH]1)NC(=O)[C@H](CCSC)NC(=O)[C@@H](N)CC(=O)O)C(N)=O (HELM PEPTIDE1{D.M.H.D.D.F.[meF].G.L.M.[am]}$$$$V2.0) | 7.42 | < 10% | 10.40 | < 10%
CSCC[C@H](NC(=O)[C@H](CC(C)C)NC(=O)CNC(=O)[C@H](Cc1ccc(O)cc1)NC(=O)[C@H](Cc1ccccc1)NC(=O)[C@H](CCC(=O)O)NC(=O)[C@H](CC(=O)O)NC(=O)[C@@H]1CCCN1C(=O)[C@H](CC(N)=O)NC(=O)[C@@H]1CCCN1C(=O)[C@@H]1CCC(=O)N1)C(N)=O (HELM PEPTIDE1{[Glp].P.N.P.D.E.F.Y.G.L.M.[am]}$$$$V2.0) | 6.15 | < 10% | 8.86 | 98%
H-DTGDKFYGLM-NH2 [SIALOKININ II] | 5.71 | 98% | 7.96 | 99%
CSCC[C@H](NC(=O)[C@H](CC(C)C)NC(=O)CNC(=O)[C@H](Cc1ccccc1)N(C)C(=O)[C@H](Cc1ccccc1)NC(=O)[C@H](CC(=O)O)NC(=O)[C@H](CC(N)=O)NC(=O)[C@@H]1CCCN1C(=O)[C@H](CC(=O)O)NC(=O)[C@H](C)NC(=O)[C@@H]1CCC(=O)N1)C(N)=O (HELM PEPTIDE1{[Glp].A.D.P.N.D.F.[meF].G.L.M.[am]}$$$$V2.0) | 7.27 | < 10% | 9.82 | 87%
CSCC[C@H](NC(=O)[C@H](CC(C)C)NC(=O)CNC(=O)[C@H](Cc1ccccc1)N(C)C(=O)[C@H](Cc1ccccc1)NC(=O)[C@H](Cc1cnc[nH]1)NC(=O)[C@H](CC(=O)O)NC(=O)[C@H](Cc1cnc[nH]1)NC(=O)[C@H](CCSC)NC(=O)[C@@H](N)CC(=O)O)C(N)=O (HELM PEPTIDE1{D.M.H.D.H.F.[meF].G.L.M.[am]}$$$$V2.0) | 8.23 | 47% | 10.77 | < 10%
CSCC[C@H](NC(=O)[C@H](CC(C)C)NC(=O)CNC(=O)[C@H](Cc1ccccc1)N(C)C(=O)[C@H](Cc1ccccc1)NC(=O)[C@@H]1CCCN1C(=O)[C@H](CC(=O)O)NC(=O)[C@H](Cc1cnc[nH]1)NC(=O)[C@H](CCSC)NC(=O)[C@@H](N)CC(=O)O)C(N)=O (HELM PEPTIDE1{D.M.H.D.P.F.[meF].G.L.M.[am]}$$$$V2.0) | 7.35 | 38% | 10.39 | < 10%

These reach a higher pIC50 (Neuromedin-K receptor [1]). Values come first.

pIC50 (Neuromedin-K receptor [1]) | inhibition [2] | pEC50 (Neuromedin-K receptor [3]) | inhibition [4] | Compound
8.52 | 57% | 10.89 | < 10% | CSCC[C@H](NC(=O)[C@H](CC(C)C)NC(=O)CNC(=O)[C@H](Cc1ccccc1)N(C)C(=O)[C@H](Cc1ccccc1)NC(=O)[C@H](Cc1ccccc1)NC(=O)[C@H](CC(=O)O)NC(=O)[C@H](Cc1cnc[nH]1)NC(=O)[C@H](CCSC)NC(=O)[C@@H](N)CC(=O)O)C(N)=O (HELM PEPTIDE1{D.M.H.D.F.F.[meF].G.L.M.[am]}$$$$V2.0)
8.74 | 79% | 9.55 | < 10% | CSCC[C@H](NC(=O)[C@H](CC(C)C)NC(=O)CNC(=O)[C@H](Cc1ccccc1)N(C)C(=O)[C@H](Cc1ccccc1)NC(=O)[C@H](Cc1c[nH]c2ccccc12)NC(=O)[C@H](CC(=O)O)NC(=O)[C@H](Cc1cnc[nH]1)NC(=O)[C@H](CCSC)NC(=O)[C@@H](N)CC(=O)O)C(N)=O (HELM PEPTIDE1{D.M.H.D.W.F.[meF].G.L.M.[am]}$$$$V2.0)
8.77 | 41% | 10.49 | < 10% | CSCC[C@H](NC(=O)[C@H](CC(C)C)NC(=O)CNC(=O)[C@H](Cc1ccccc1)N(C)C(=O)[C@H](Cc1ccccc1)NC(=O)[C@H](CCSC)NC(=O)[C@H](CC(=O)O)NC(=O)[C@H](Cc1cnc[nH]1)NC(=O)[C@H](CCSC)NC(=O)[C@@H](N)CC(=O)O)C(N)=O (HELM PEPTIDE1{D.M.H.D.M.F.[meF].G.L.M.[am]}$$$$V2.0)
8.82 | 51% | 10.14 | < 10% | CSCC[C@H](NC(=O)[C@H](CC(C)C)NC(=O)CNC(=O)[C@H](Cc1ccccc1)N(C)C(=O)[C@H](Cc1ccccc1)NC(=O)[C@H](Cc1ccc(O)cc1)NC(=O)[C@H](CC(=O)O)NC(=O)[C@H](Cc1cnc[nH]1)NC(=O)[C@H](CCSC)NC(=O)[C@@H](N)CC(=O)O)C(N)=O (HELM PEPTIDE1{D.M.H.D.Y.F.[meF].G.L.M.[am]}$$$$V2.0)
8.34 | 21% | 10.37 | 24% | CSCC[C@H](NC(=O)[C@H](CC(C)C)NC(=O)CNC(=O)[C@H](Cc1ccccc1)N(C)C(=O)[C@H](Cc1ccccc1)NC(=O)[C@H](CCC(N)=O)NC(=O)[C@H](CC(=O)O)NC(=O)[C@H](Cc1cnc[nH]1)NC(=O)[C@H](CCSC)NC(=O)[C@@H](N)CC(=O)O)C(N)=O (HELM PEPTIDE1{D.M.H.D.Q.F.[meF].G.L.M.[am]}$$$$V2.0)
